Measurements taken from the CheMixHub viscosity set.

Experiment: xn = mol fraction of the nth substance listed

C=CC#N + CCCCCCO
viscosity [mPa·s], 101.33 kPa
Details | x1 = 0.1023 | x1 = 0.2036 | x1 = 0.3089 | x1 = 0.4105 | x1 = 0.5081 | x1 = 0.6117 | x1 = 0.7084 | x1 = 0.8056 | x1 = 0.9019
298.15 K | 3.139 | 2.308 | 1.705 | 1.3 | 1.006 | 0.774 | 0.617 | 0.495 | 0.41
303.15 K | 2.727 | 2.03 | 1.522 | 1.175 | 0.916 | 0.712 | 0.571 | 0.466 | 0.388
308.15 K | 2.38 | 1.799 | 1.365 | 1.063 | 0.84 | 0.661 | 0.533 | 0.439 | 0.37

CC(=O)[O-].CCCC[NH3+] + CO
101.3 kPa
Details | viscosity [mPa·s]
293.15 K, x1 = 0.7993 | 256.5
298.15 K, x1 = 0.8988 | 312.5

C=CC#N + C1CCCCC1
307.4 K, 101.33 kPa
Details | viscosity [mPa·s]
x2 = 0.0861 | 0.66
x2 = 0.2848 | 0.53
x2 = 0.5332 | 0.419
x2 = 0.544 | 0.396
x2 = 0.7114 | 0.359
x2 = 0.8989 | 0.318

CCCCOC(=O)c1ccccc1C(=O)OCCCC + CCCCCCCCO
303.15 K, 101.33 kPa
Details | viscosity [mPa·s]
x1 = 0.1003 | 5.9
x1 = 0.2011 | 5.876
x1 = 0.3001 | 6.078
x1 = 0.3996 | 6.444
x1 = 0.5 | 6.901
x1 = 0.5999 | 7.6
x1 = 0.6958 | 8.396
x1 = 0.7975 | 9.53
x1 = 0.898 | 11.05

CCCCC(C)O (stereo not given) + CCCCCCCCCCCC
298.15 K, 101 kPa
Details | viscosity [mPa·s]
x2 = 0.0555 | 3.6
x2 = 0.0999 | 3.24
x2 = 0.1555 | 2.84
x2 = 0.1999 | 2.55
x2 = 0.2554 | 2.24
x2 = 0.2999 | 2.01
x2 = 0.3555 | 1.77
x2 = 0.3998 | 1.6
x2 = 0.4555 | 1.42
x2 = 0.4999 | 1.31
x2 = 0.5554 | 1.19
x2 = 0.5998 | 1.12
x2 = 0.6554 | 1.05
x2 = 0.6999 | 1.02
x2 = 0.7555 | 1
x2 = 0.7997 | 1
x2 = 0.8555 | 1.02
x2 = 0.8998 | 1.04
x2 = 0.9555 | 1.09

CN(C)c1ccccc1 + Cc1ccccc1
viscosity [mPa·s], 101 kPa
Details | x1 = 0.1011 | x1 = 0.1961 | x1 = 0.3125 | x1 = 0.4011 | x1 = 0.493 | x1 = 0.5974 | x1 = 0.701 | x1 = 0.8015 | x1 = 0.8983
298.15 K | 0.597 | 0.653 | 0.711 | 0.767 | 0.831 | 0.906 | 0.989 | 1.066 | 1.173
303.15 K | 0.561 | 0.604 | 0.668 | 0.714 | 0.77 | 0.834 | 0.911 | 0.988 | 1.07
308.15 K | 0.532 | 0.57 | 0.625 | 0.671 | 0.726 | 0.782 | 0.854 | 0.918 | 0.999
313.15 K | 0.499 | 0.536 | 0.586 | 0.619 | 0.664 | 0.726 | 0.78 | 0.851 | 0.914

CCCCC(C)O (stereo not given) + CCO
298.15 K, 101.33 kPa
Details | viscosity [mPa·s]
x2 = 0.1065 | 3.783
x2 = 0.2102 | 3.485
x2 = 0.3167 | 3.115
x2 = 0.4096 | 2.827
x2 = 0.5036 | 2.512
x2 = 0.6033 | 2.16
x2 = 0.7079 | 1.836
x2 = 0.8023 | 1.572
x2 = 0.9063 | 1.301

CC(=O)CC(C)=O + CCCO
303.15 K, 101 kPa
Details | viscosity [mPa·s]
x1 = 0.05 | 1.453
x1 = 0.1 | 1.271
x1 = 0.2999 | 0.922
x1 = 0.4999 | 0.769
x1 = 0.6999 | 0.697
x1 = 0.8994 | 0.673
x1 = 0.9487 | 0.667

CCCCN(CCCC)CCCC + CCCCOCCO
viscosity [mPa·s], 100 kPa
Details | 298.15 K | 303.15 K | 308.15 K
x2 = 0.05 | 1.31 | 1.19 | 1.12
x2 = 0.1004 | 1.37 | 1.23 | 1.15
x2 = 0.1502 | 1.43 | 1.28 | 1.19
x2 = 0.2006 | 1.49 | 1.33 | 1.23
x2 = 0.2999 | 1.62 | 1.43 | 1.32
x2 = 0.3999 | 1.76 | 1.54 | 1.43
x2 = 0.5046 | 1.93 | 1.69 | 1.55
x2 = 0.6 | 2.1 | 1.83 | 1.67
x2 = 0.7 | 2.29 | 1.99 | 1.8
x2 = 0.8 | 2.5 | 2.16 | 1.96
x2 = 0.8997 | 2.7 | 2.36 | 2.14
x2 = 0.9498 | 2.79 | 2.43 | 2.21

C=CC#N + CS(C)=O
303.15 K, 101.3 kPa
Details | viscosity [mPa·s]
x1 = 0.102 | 1.529
x1 = 0.2051 | 1.288
x1 = 0.3025 | 1.096
x1 = 0.3994 | 0.9277
x1 = 0.5057 | 0.771
x1 = 0.6018 | 0.6508
x1 = 0.7045 | 0.5395
x1 = 0.8066 | 0.4478
x1 = 0.8999 | 0.3757
